Patent US20100204148A1, “(D-LEU7 ) -HISTRELIN AS A THERAPEUTIC AGENT” (priority 2007, published 2010)

Tests used:
HIV-1IIIB = assay: HIV-1 antiviral assay (CPE reduction) in CEM-SS cells; type: cell-based; settings: peptide 10 micrograms per ml; 6 days post-infection; MTS
HCMV strain AD169 = assay: HCMV plaque reduction assay in MRC-5 cells; type: cell-based; settings: HCMV in MRC-5 cells; peptide 10 micrograms per ml; 7-10 days
Excerpt: Ganciclovir was used as positive control.

Pseudomonas aeruginosa = type: cell-based; settings: 10 micrograms per ml
Streptococcus pneumoniae = type: cell-based; settings: 10 micrograms per ml
Human A549 cells [1] = assay: Propidium iodide cell cycle assay; type: cell-based; settings: 10 micrograms per ml, 24 hours, FACS
Excerpt: The cell cycle consists of four distinct phases: […]

RAW 264.7 cells = assay: Phagocytosis assay (Fluorescein-labeled Escherichia coli); type: cell-based, mouse; settings: 10 micrograms per ml, flow cytometry
Human A549 cells [2] = assay: Apoptosis induction assay (Annexin-5); type: cell-based; settings: 10 micrograms per ml, 24 hours
Excerpt: Human A549 cells (carcinomic human alveolar basal epithelial cells) were utilized in the experiments employing the Annexin-5 apoptosis assay.

Human A549 cells [3] = assay: Apoptosis prevention assay (C2 ceramide, Annexin-5); type: cell-based; settings: 30 min pretreatment with 10 micrograms per ml
[4] = tested on: spleen cells of Ovalbumin-immunized Balb/c mice; assay: Th1/Th2 cytokine profiling assay; type: cell-based, mouse; settings: 10 micrograms per ml; Ovalbumin restimulation; 72 hours
[5] = tested on: macrophages from human PBMC; assay: TNF alpha production assay (LPS-stimulated macrophages, ELISA); type: cell-based; settings: 10 micrograms per ml, lipopolysaccharide 200 ng/ml, overnight
Excerpt: Not stimulated macrophages served as negative background control.

[6] = tested on: Primary Human endothelial cells (HUVEC); assay: Endothelial cell migration assay; type: cell-based; settings: 10 micrograms per ml, 22 hours
HUVEC = assay: Endothelial tube formation assay; type: cell-based, human; settings: 10 micrograms per ml, 20 hours
Excerpt: Positive control was vehicle only.

MRSA = settings: 10 micrograms per ml
in vitro [7] = settings: human, CEM-SS cells
in vitro [8] = settings: human
in vitro [9] = settings: human, MRC-5 cells (human embryonal lung fibroblasts)
Method: The following day, peptide were added and tested in duplicates.

[10] = tested on: Human Peripheral Blood Mononuclear Cells (PBMC); assay: T cell proliferation assay (PHA, 3H-thymidine); settings: 10 micrograms per ml
[11] = tested on: Human Peripheral Blood Mononuclear Cells (PBMC); assay: B cell proliferation assay (SAC plus IL-2, 3H-thymidine); settings: 10 micrograms per ml
[12] = tested on: hepatitis B virus (HBV) ayw strain; assay: HBV experimental assay system (secreted HBV DNA, TaqMan PCR); settings: HepG2-2.2.15; peptide 10 micrograms per ml; six days; HBV DNA in supernatant

SMILES: CCNC(=O)[C@@H]1CCCN1C(=O)[C@H](CCCNC(=N)N)NC(=O)[C@@H](CC(C)C)NC(=O)[C@@H](Cc1cn(Cc2ccccc2)cn1)NC(=O)[C@H](Cc1ccc(O)cc1)NC(=O)[C@H](CO)NC(=O)[C@H](Cc1c[nH]c2ccccc12)NC(=O)[C@H](Cc1c[nH]cn1)NC(=O)[C@@H]1CCC(=O)N1 [D-Leu^7-Histrelin, Pyr-His-Trp-Ser-Tyr-D-His(Bzl)-D-Leu-Arg-Pro-NHEt]
- % CPE reduction in HIV-1 infected CEM-SS cells (HIV-1IIIB): 0.0%
- % plaque reduction (HCMV strain AD169): 2.5%
- % inhibition (Pseudomonas aeruginosa): 0.0%
- % inhibition (Streptococcus pneumoniae): 100.0%
- Cell cycle analysis G0/G1 (Human A549 cells [1]): 58.9
- Cell cycle analysis G2/M (Human A549 cells [1]): 9.7
- Cell cycle analysis S (Human A549 cells [1]): 31.4
- % of control phagocytosis (RAW 264.7 cells): 102.9%
- % of induction (Human A549 cells [2]): 4.3%
- % prevention of ceramide induced apoptosis (Human A549 cells [3]): 0.0%
- IFNγ spleen cells; TH1 response (% of control) [4]: 69.2 % of control
- IL-2 spleen cells (% of control) [4]: 155.8 % of control
- IL-4 spleen cells; TH2 response (% of control) [4]: 235.7 % of control
- IL-5 spleen cells; TH2 response (% of control) [4]: 93.0 % of control
- TNF-a spleen cells; TH1 response (% of control) [4]: 116.4 % of control
- % of LPS induction [5]: 111.5%
- % inhibition of migration [6]: 8%
- % inhibition of tube formation (HUVEC): 4%
- % inhibition (MRSA): 0.0%
- viability at 10 micrograms per ml (in vitro [7]): 100%
- viability at 144 h, 10 micrograms per ml (in vitro [8]): 91.4%
- viability at 144 h (in vitro [9]): 100%
- % of PHA induced control [10]: 96.2%
- % of SAC/IL2 induced control [11]: 92.6%
- % inhibition of HBV replication in HEP G2 cells [12]: 61.6%
